Experimental data taken from patent publication US20160058847A1, “IS100- A Highly Effective Enzyme Principle For Use In Dermal Therapeutics, And For Health And Beauty” (Issar Pharmaceuticals Pvt. Ltd., priority 2014, published 2016).
Entries after “also recorded” stand apart in the source; their conditions may differ.

Experiments:
IS 100 [1] = assay type: biochemical, wheat; details: pH 7, 37° C.; for inhibition of IS 100 activity (in words): Ac-DEVD-AFC hydrolysis, 20 mM HEPES, 0.05% CHAPS, 5% sucrose, FIG. 3
Method: As described above, the proteolytic activity of IS 100 can be blocked by using an inhibitor which blocks the active site of the protein enzyme present in the IS 100 principle. In FIG. 2 inhibitor Ac-DEVD-CHO inhibits the activity of IS 100. Several other chemicals or compounds can be tested for their efficacy in blocking the activity of IS 100. In such experiments, IS 100 is mixed with its synthetic substrate Ac-DEVD↓-AFC, and a constant volume of the inhibitor compound is added to check the extent to which the inhibitor blocks the activity of IS 100. In all experimental runs the concentrations of IS 100 and Ac-DEVD↓-AFC are maintained uniformly. The pH for all experiments is kept at 7 and the experiments are run at 37° C.

IS 100 [2] = details: Ac-DEVD-AFC hydrolysis
Method: Rates of hydrolysis of a synthetic peptide Ac-DEVD↓-AFC (N-acetyl-Asp-Glu-Val-Asp-7-amino-4-trifluoromethylcoumarin) as a function of variables are plotted. Note that the rate, ΔF, is determined from the initial slope of the time-dependent fluorescence trace.
In the present test, 400 μL of IS 100 is combined with 2 μL of a 1 mM solution of Ac-DEVD↓-AFC, and the fluorescence is monitored as a function of time at 37° C.

human recombinant PKR = assay: Proteolytic cleavage of PKR by IS 100, Western analysis; assay type: biochemical; details: inhibitor included in reaction mixture, FIG. 2 lane 1
Method: (§1) FIG. 2 illustrates proteolytic cleavage by formulation IS 100 shown by Western analysis of cleavage products of substrate proteins. IS 100 was incubated with the test protein in the presence and absence of the synthetic inhibitor Ac-DEVD-CHO, and the reaction product was immunoblotted using antibody for the test protein.
(§2) These two proteins were chosen simply because of their ready availability with the investigators. In fact, any protein will be a substrate for IS 100. In a typical protocol, IS 100 is incubated with the test substrate protein in the presence and absence of the synthetic inhibitor Ac-DEVD-CHO, and the reaction products are analyzed by electrophoresis, the amount of the uncut test protein is immunoblotted with human anti-PKR or anti-PERK antibodies. Note that immunoblotting of a test protein by using the corresponding antibody will show the status of that protein alone, and not other proteins present in IS 100.

human recombinant PERK = assay: Proteolytic cleavage of PERK by IS 100, Western analysis; assay type: biochemical; details: inhibitor included in reaction mixture, FIG. 2 lane 1
Method: as §1, §2

O=C(O)CI [IAA, Iodoacetic acid]
inhibition of IS 100 activity (in words) (IS 100 [1]): completely inhibits the activity; also recorded: almost completely knocks out the activity

[Cl-].[Cl-].[Mg+2] [MgCl2, magnesium chloride]
concentration at which the activity passes through a minimum (IS 100 [2]; FIG. 1F): ~0.1 mM

[Cl-].[Na+] [NaCl, sodium chloride]
effect of NaCl concentration on enzyme activity (IS 100 [2]; FIG. 1D): highly sensitive

O=S(=O)(F)Cc1ccccc1 [PMSF, phenylmethanesulfonyl fluoride]
inhibition of IS 100 activity (in words) (IS 100 [1]): only marginally; also recorded: sign of inhibition is also apparent
inhibition of IS 100 activity (IS 100 [1]; at 1000 μM, FIG. 3C): ~10%

[Cl-].[Cl-].[Zn+2] [ZnCl2, zinc chloride]
Kd (IS 100 [2]; read-out: apparent binding constant, KZn app (inhibition), FIG. 1E): 310 µM

CC(=O)N[C@@H](CC(C)C)C(=O)N[C@@H](CC(C)C)C(=O)N[C@H](C=O)CCCNC(=N)N [leupeptin]
inhibition of IS 100 activity (in words) (IS 100 [1]): influences the activity to some extent
inhibition of IS 100 activity, saturation level (IS 100 [1]; at ~25 μM, FIG. 3B): 30%

Ac-DEVD-CHO
inhibition of IS 100 activity (in words) (IS 100 [1]): inhibits the activity of IS 100 significantly
block of PKR cleavage by IS 100 (human recombinant PKR): cleavage is blocked; also recorded: not cleaved
block of PERK cleavage by IS 100 (human recombinant PERK): cleavage is blocked; also recorded: not cleaved
